Assay results from patent publication US8524754B2, “Polymorphic, crystalline and mesophase forms of sodium 2-(5-bromo-4-(4-cyclopropylnaphthalen-1-yl)-4H-1,2,4-triazol-3-ylthio) acetate, and uses thereof” (Ardea Biosciences, Inc., priority 2010, dated 2013).

Assay: Solid-state stability of packaged Form A / crystalline polymorphs under accelerated and long term conditions
Type: physicochemical
Conditions: for degradation of packaged Form A: double LDPE bag inside heat sealed anhydrous foil bag in HDPE container
Procedure: Form A of sodium 2-(5-bromo-4-(4-cyclopropylnaphthalen-1-yl)-4H-1,2,4-triazol-3-ylthio)acetate was tested under various conditions to determine thermodynamic stability. […] Packaging was in a double low density polyethylene plastic bag inside a heat sealed anhydrous foil bag in an HDPE container.
The improved stability of the crystalline polymorphs of sodium 2-(5-bromo-4-(4-cyclopropylnaphthalen-1-yl)-4H-1,2,4-triazol-3-ylthio)acetate provides for the preparation of pharmaceutical dosage forms displaying reduced variability in the dosage present in a given dosage form, reduction in the presence of impurities in the final pharmaceutical product, and an improved shelf life of formulated dosage forms when compared to the pharmaceutical dosage form prepared with the amorphous solid state form of the carboxylic acid.

degradation of packaged Form A (accelerated conditions (40° C.-75% RH), 6 months): No degradation
degradation of packaged Form A (long term conditions (25° C.-60% RH), 12 months): no degradation
SMILES: O=C([O-])CSc1nnc(Br)n1-c1ccc(C2CC2)c2ccccc12.[Na+] [Form A, sodium 2-(5-bromo-4-(4-cyclopropylnaphthalen-1-yl)-4H-1,2,4-triazol-3-ylthio)acetate]
stability in comparison to the amorphous solid state form of the carboxylic acid (free acid) (solid state): improvement over the solid state amorphous free acid
